Reference: article PMC2941766 (Molecular pharmaceutics, 2010)

Key:
Assay type in all cases: in vitro ADME
[1] = molecular target: T1, UGT2B7 (Homo sapiens, UniProt P16662); test: Glucuronidation by expressed human UGT2B7; conditions: for glucuronidation rate: human, pH 7.4
T1 sequence (P16662 24-529): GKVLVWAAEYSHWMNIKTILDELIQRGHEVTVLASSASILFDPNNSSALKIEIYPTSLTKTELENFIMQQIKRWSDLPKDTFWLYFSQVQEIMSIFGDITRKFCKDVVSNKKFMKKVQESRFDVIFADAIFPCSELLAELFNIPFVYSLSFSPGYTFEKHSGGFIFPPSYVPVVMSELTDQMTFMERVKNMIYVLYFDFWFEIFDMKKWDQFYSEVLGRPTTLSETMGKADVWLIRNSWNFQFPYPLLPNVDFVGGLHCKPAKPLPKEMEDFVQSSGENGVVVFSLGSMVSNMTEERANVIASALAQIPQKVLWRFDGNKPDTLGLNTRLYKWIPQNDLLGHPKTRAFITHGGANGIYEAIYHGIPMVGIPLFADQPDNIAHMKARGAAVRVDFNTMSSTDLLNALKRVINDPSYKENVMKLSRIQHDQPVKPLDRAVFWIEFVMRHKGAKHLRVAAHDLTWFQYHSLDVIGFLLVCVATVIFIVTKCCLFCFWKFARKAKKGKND

[2] = Glucuronidation by pooled human liver microsomes; conditions: human, 2.5 μM, pH 7.4
[3] = molecular target: T2, UGT1A8 (Homo sapiens, UniProt Q9HAW9); test: Glucuronidation by expressed human UGT1A8; conditions: human, 2.5 μM, pH 7.4
T2 sequence (Q9HAW9 26-530): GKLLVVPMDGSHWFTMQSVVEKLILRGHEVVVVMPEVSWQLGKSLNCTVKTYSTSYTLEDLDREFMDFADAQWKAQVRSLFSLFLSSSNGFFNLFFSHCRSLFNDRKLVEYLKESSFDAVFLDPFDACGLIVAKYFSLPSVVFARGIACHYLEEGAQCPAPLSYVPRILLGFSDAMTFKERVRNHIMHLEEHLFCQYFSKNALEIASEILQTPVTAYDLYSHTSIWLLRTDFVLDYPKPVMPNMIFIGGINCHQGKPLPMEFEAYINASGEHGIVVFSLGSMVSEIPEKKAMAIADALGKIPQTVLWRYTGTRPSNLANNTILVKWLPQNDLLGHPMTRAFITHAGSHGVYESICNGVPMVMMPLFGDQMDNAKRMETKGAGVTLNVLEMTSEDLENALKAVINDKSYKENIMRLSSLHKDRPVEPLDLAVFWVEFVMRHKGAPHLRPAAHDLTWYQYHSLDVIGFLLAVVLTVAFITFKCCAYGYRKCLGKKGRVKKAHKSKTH

[4] = molecular target: T3, UGT1A9 (Homo sapiens, UniProt O60656); test: Glucuronidation by expressed human UGT1A9; conditions: human, 2.5 μM, pH 7.4
T3 sequence (O60656 26-530): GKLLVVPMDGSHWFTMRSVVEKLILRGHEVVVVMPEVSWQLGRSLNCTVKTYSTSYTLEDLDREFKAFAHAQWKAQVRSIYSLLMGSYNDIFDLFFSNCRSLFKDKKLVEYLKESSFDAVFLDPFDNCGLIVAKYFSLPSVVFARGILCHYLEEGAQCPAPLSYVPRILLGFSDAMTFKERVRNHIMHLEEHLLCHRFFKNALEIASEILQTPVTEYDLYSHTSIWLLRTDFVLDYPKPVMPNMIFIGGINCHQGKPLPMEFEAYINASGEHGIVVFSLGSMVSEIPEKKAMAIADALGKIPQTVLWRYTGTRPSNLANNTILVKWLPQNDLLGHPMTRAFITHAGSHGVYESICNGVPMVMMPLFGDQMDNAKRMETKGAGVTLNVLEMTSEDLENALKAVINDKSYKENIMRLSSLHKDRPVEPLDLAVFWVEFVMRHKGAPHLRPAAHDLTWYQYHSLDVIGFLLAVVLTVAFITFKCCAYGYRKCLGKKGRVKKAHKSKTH

[5] = Glucuronidation by pooled human intestinal microsomes; conditions: human, 2.5 μM, pH 7.4
[6] = molecular target: T4, UGT1A1 (Homo sapiens, UniProt P22309); test: Glucuronidation by expressed human UGT1A1; conditions: human, pH 7.4
T4 sequence (P22309 26-533): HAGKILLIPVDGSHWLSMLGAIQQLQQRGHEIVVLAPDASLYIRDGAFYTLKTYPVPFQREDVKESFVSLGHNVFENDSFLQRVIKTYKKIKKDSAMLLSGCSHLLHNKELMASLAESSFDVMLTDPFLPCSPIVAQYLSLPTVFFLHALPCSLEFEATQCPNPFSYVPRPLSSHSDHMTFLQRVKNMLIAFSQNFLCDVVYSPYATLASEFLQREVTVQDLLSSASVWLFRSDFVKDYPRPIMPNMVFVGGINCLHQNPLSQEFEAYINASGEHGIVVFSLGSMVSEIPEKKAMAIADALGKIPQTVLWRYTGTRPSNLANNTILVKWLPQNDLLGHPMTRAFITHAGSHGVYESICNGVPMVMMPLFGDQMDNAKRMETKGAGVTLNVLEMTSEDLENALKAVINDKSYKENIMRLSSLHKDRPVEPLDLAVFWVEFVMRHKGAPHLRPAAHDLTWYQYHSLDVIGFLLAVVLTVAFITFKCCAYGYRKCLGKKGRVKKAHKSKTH

[7] = molecular target: T5, UGT1A7 (Homo sapiens, UniProt Q9HAW7); test: Glucuronidation by expressed human UGT1A7; conditions: human, 2.5 μM, pH 7.4
T5 sequence (Q9HAW7 26-530): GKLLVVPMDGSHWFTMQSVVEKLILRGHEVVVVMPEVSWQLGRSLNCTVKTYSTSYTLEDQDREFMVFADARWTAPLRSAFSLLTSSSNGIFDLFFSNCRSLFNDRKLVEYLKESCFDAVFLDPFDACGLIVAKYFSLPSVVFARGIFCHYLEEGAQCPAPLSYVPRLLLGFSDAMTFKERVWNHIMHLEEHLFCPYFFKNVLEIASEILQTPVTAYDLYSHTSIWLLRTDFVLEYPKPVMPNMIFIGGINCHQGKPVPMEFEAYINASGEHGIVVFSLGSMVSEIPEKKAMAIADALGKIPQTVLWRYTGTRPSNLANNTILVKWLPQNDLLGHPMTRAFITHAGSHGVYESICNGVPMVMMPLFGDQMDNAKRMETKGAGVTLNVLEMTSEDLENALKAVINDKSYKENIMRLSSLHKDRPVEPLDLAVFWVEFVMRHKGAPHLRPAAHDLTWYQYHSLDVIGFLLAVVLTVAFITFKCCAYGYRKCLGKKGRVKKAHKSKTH

[8] = molecular target: T6, UGT1A10 (Homo sapiens, UniProt Q9HAW8); test: Glucuronidation by expressed human UGT1A10; conditions: human, 10 μM, pH 7.4
T6 sequence (Q9HAW8 26-530): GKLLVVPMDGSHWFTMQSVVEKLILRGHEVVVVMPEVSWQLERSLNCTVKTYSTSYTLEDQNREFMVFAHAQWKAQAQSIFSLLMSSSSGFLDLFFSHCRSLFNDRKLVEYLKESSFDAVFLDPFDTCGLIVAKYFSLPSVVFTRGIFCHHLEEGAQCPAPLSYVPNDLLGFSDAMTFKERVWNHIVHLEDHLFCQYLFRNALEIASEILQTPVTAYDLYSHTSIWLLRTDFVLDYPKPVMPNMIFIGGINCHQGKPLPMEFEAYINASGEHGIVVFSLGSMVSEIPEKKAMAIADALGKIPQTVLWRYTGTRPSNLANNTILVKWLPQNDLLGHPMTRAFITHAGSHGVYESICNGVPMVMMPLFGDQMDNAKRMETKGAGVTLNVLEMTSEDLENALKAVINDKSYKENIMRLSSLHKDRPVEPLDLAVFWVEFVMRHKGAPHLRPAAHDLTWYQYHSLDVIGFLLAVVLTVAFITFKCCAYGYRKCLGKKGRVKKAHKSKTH

- substrate of UGT2B7 [1]: substrates
- glucuronidation rate ([1]; 2.5 μM): 0.20±0.01 nmol per min per mg of protein
- glucuronidation rate ([1]; 10 μM): 0.40±0.02 nmol per min per mg of protein
- glucuronidation rate ([1]; 35 μM): 0.11±0.00 nmol per min per mg of protein
- glucuronidation rate [2]: 0.00±0.00 nmol per min per mg of protein
- glucuronidation rate [3]: 0.28±0.04 nmol per min per mg of protein
- glucuronidation rate [4]: 0.29±0.01 nmol per min per mg of protein
- glucuronidation rate [5]: 0.49±0.06 nmol per min per mg of protein
- glucuronidation rate ([6]; 2.5 μM): 0.28±0.00 nmol per min per mg of protein
- glucuronidation rate ([6]; 10 μM): 0.28±0.01 nmol per min per mg of protein
- glucuronidation rate [7]: 0 nmol per min per mg of protein
- glucuronidation rate [8]: 0.12±0.01 nmol per min per mg of protein
SMILES: O=c1cc(-c2ccccc2)oc2cccc(O)c12 [5-HF, 5-hydroxyflavone]
- glucuronidation rate ([6]; 35 μM): 0.308±0.02 nmol per min per mg of protein
